Results from ChEMBL document CHEMBL2029220, “Oxaphosphinanes: new therapeutic perspectives for glioblastoma” (J Med Chem, 2012).
Each block holds one compound with its values, some of them ahead of it. Calls of active or inactive are those of the source. The calls are words filed in the database; no cut-off is given here.

How the values were obtained:
B16-F10 [1] = experiment: Antiproliferative activity against mouse B16F10 cells at 1 uM after 48 hrs by MTT assay relative to control; type: functional
A-431 [2] = experiment: Antiproliferative activity against human A431 cells after 48 hrs by MTT assay; type: functional, cell-based; conditions: A-431, 48 h
C6 [3] = experiment: Cytotoxicity against rat C6 cells assessed as decrease in cell index at 1 uM after 3 hrs; type: functional, cell-based
Huh-7 [4] = experiment: Antiproliferative activity against human HuH7 cells assessed as higher lowest toxic concentration after 48 hrs by MTT assay relative to control; type: functional
C6 [5] = experiment: Cytotoxicity against rat C6 cells at 10 uM after 1 hr by LDH Assay; type: functional, cell-based
DU-145 [6] = experiment: Antiproliferative activity against human DU145 cells after 48 hrs by MTT assay; type: functional, cell-based; conditions: DU-145, 48 h
DU-145 [7] = experiment: Antiproliferative activity against human DU145 cells at 1 uM after 48 hrs by MTT assay relative to control; type: functional, cell-based
DU-145 [8] = experiment: Antiproliferative activity against human DU145 cells assessed as higher lowest toxic concentration after 48 hrs by MTT assay relative to control; type: functional
C6 [9] = experiment: Cytotoxicity against rat C6 cells assessed as decrease in cell index at 50 uM after 2 hrs; type: functional, cell-based
MDA-MB-231 [10] = experiment: Antiproliferative activity against human MDA-MB-231 cells at 10 uM after 48 hrs by MTT assay relative to control; type: functional
C6 [11] = experiment: Antiproliferative activity against rat C6 cells at 10 uM after 48 hrs by MTT assay relative to control; type: functional
Caco-2 [12] = experiment: Antiproliferative activity against human Caco2 cells at 10 uM after 48 hrs by MTT assay relative to control; type: functional
MDA-MB-435 [13] = experiment: Antiproliferative activity against human MDA-MB-435 cells assessed as higher lowest toxic concentration after 48 hrs by MTT assay relative to control; type: functional
C6 [14] = experiment: Antiproliferative activity against rat C6 cells after 48 hrs by MTT assay; type: functional, cell-based; conditions: C6, 48 h
MDA-MB-435 [15] = experiment: Antiproliferative activity against human MDA-MB-435 cells at 1 uM after 48 hrs by MTT assay relative to control; type: functional
C6 [16] = experiment: Antiproliferative activity against rat C6 cells at 1 uM after 48 hrs by MTT assay relative to control; type: functional
DU-145 [17] = experiment: Antiproliferative activity against human DU145 cells at 10 uM after 48 hrs by MTT assay relative to control; type: functional
Caco-2 [18] = experiment: Antiproliferative activity against human Caco2 cells after 48 hrs by MTT assay; type: functional, cell-based; conditions: Caco-2, 48 h
SF-295 = experiment: Antiproliferative activity against human SF295 cells at 10 uM after 24 hrs by SRB assay; type: functional, cell-based
B16-F10 [19] = experiment: Antiproliferative activity against mouse B16F10 cells after 48 hrs by MTT assay; type: functional, cell-based; conditions: B16-F10, 48 h
Caco-2 [20] = experiment: Antiproliferative activity against human Caco2 cells at 1 uM after 48 hrs by MTT assay relative to control; type: functional
C6 [21] = experiment: Antiproliferative activity against rat C6 cells assessed as higher lowest toxic concentration after 48 hrs by MTT assay relative to control; type: functional
MDA-MB-231 [22] = experiment: Antiproliferative activity against human MDA-MB-231 cells at 1 uM after 48 hrs by MTT assay relative to control; type: functional
Caco-2 [23] = experiment: Antiproliferative activity against human Caco2 cells assessed as higher lowest toxic concentration after 48 hrs by MTT assay relative to control; type: functional
B16-F10 [24] = experiment: Antiproliferative activity against mouse B16F10 cells assessed as higher lowest toxic concentration after 48 hrs by MTT assay relative to control; type: functional
[25] = Cytotoxicity against mouse astrocytes assessed as decrease in cell viability at 1 to 100 uM after 48 hrs by Hoechst 33342 staining; type: cell-based; conditions: astrocyte
Hs-578T = experiment: Antiproliferative activity against human Hs 578T cells at 10 uM after 24 hrs by SRB assay; type: functional, cell-based
C6 [26] = experiment: Cytotoxicity against rat C6 cells assessed as decrease in cell index at 25 uM after 3 hrs; type: functional, cell-based
A-431 [27] = experiment: Antiproliferative activity against human A431 cells at 10 uM after 48 hrs by MTT assay relative to control; type: functional
B16-F10 [28] = experiment: Antiproliferative activity against mouse B16F10 cells at 10 uM after 48 hrs by MTT assay relative to control; type: functional
C6 [29] = experiment: Cytotoxicity against rat C6 cells assessed as decrease in cell index at 5 uM after 3 hrs; type: functional, cell-based
C6 [30] = experiment: Cytotoxicity against rat C6 cells assessed as decrease in cell index at 100 uM after 1 hr; type: functional, cell-based
MDA-MB-435 [31] = experiment: Antiproliferative activity against human MDA-MB-435 cells after 48 hrs by MTT assay; type: functional, cell-based; conditions: MDA-MB-435, 48 h
MDA-MB-435 [32] = experiment: Antiproliferative activity against human MDA-MB-435 cells at 10 uM after 48 hrs by MTT assay relative to control; type: functional
Huh-7 [33] = experiment: Antiproliferative activity against human HuH7 cells at 1 uM after 48 hrs by MTT assay relative to control; type: functional
A-431 [34] = experiment: Antiproliferative activity against human A431 cells at 1 uM after 48 hrs by MTT assay relative to control; type: functional
C6 [35] = experiment: Cytotoxicity against rat C6 cells assessed as decrease in cell index at 10 uM after 3 hrs; type: functional, cell-based
A-431 [36] = experiment: Antiproliferative activity against human A431 cells assessed as higher lowest toxic concentration after 48 hrs by MTT assay relative to control; type: functional
Huh-7 [37] = experiment: Antiproliferative activity against human HuH7 cells after 48 hrs by MTT assay; type: functional, cell-based; conditions: Huh-7, 48 h
[38] = Cytotoxicity against mouse astrocytes assessed as decrease in cell viability at 1 to 100 uM after 48 hrs by neutral red incorporation assay; type: cell-based; conditions: astrocyte
Huh-7 [39] = experiment: Antiproliferative activity against human HuH7 cells at 10 uM after 48 hrs by MTT assay relative to control; type: functional
SNB-75 = experiment: Antiproliferative activity against human SNB75 cells at 10 uM after 24 hrs by SRB assay; type: functional, cell-based
MDA-MB-231 [40] = experiment: Antiproliferative activity against human MDA-MB-231 cells assessed as higher lowest toxic concentration after 48 hrs by MTT assay relative to control; type: functional
[41] = Cytotoxicity against mouse astrocytes assessed as decrease in cell viability at 1 to 100 uM after 48 hrs by propidium iodide incorporation assay; type: cell-based; conditions: astrocyte
C6 [42] = experiment: Antiproliferative activity against rat C6 cells at 0.1 to 100 uM after 48 hrs by neutral red incorporation assay; type: functional, cell-based
U-251 = experiment: Antiproliferative activity against human U251 cells at 10 uM after 24 hrs by SRB assay; type: functional, cell-based
NCI-H522 = experiment: Antiproliferative activity against human NCI-H522 cells at 10 uM after 24 hrs by SRB assay; type: functional, cell-based
LOX IMVI = experiment: Antiproliferative activity against human LOXIMVI cells at 10 uM after 24 hrs by SRB assay; type: functional; conditions: read-out: GI
SK-OV-3 = experiment: Antiproliferative activity against human SKOV3 cells at 10 uM after 24 hrs by SRB assay; type: functional, cell-based
MDA-MB-468 = experiment: Antiproliferative activity against human MDA-MB-468 cells at 10 uM after 24 hrs by SRB assay; type: functional, cell-based
SF-268 = experiment: Antiproliferative activity against human SF268 cells at 10 uM after 24 hrs by SRB assay; type: functional, cell-based
UO-31 = experiment: Antiproliferative activity against human UO31 cells at 10 uM after 24 hrs by SRB assay; type: functional; conditions: UO-31, 24 h, read-out: GI
HOP-62 = experiment: Antiproliferative activity against human HOP62 cells at 10 uM after 24 hrs by SRB assay; type: functional, cell-based

EC50 (A-431 [2]): 14.5 µM
EC50 (DU-145 [6]): 65 µM
EC50 (Caco-2 [18]): 57 µM
EC50 (B16-F10 [19]): 4.9 µM
EC50 (MDA-MB-435 [31]): 13.9 µM
EC50 (Huh-7 [37]): 30 µM
Compound: O=[P@@]1(c2ccccc2)O[C@H](COCc2ccccc2)[C@@H](OCc2ccccc2)[C@H](OCc2ccccc2)[C@H]1O
Activity (B16-F10 [1]): 25%
Activity (C6 [3]): inactive
Activity (Huh-7 [4]): 0.1 µM
Activity (C6 [5]): Active
Activity (DU-145 [7]): inactive
Activity (DU-145 [8]): 5 µM
Activity (C6 [9]): Active
Activity (MDA-MB-231 [10]): 30%
Activity (C6 [11]): 82%
Activity (Caco-2 [12]): 43%
Activity (MDA-MB-435 [13]): 0.001 µM
EC50 (C6 [14]): 0.52 µM
Activity (MDA-MB-435 [15]): 22%
Activity (C6 [16]): 63%
Activity (DU-145 [17]): 40%
growth inhibition (GI) (SF-295): Active
Activity (Caco-2 [20]): 10%
Activity (C6 [21]): 0.001 µM
Activity (MDA-MB-231 [22]): 17%
Activity (Caco-2 [23]): 0.5 µM
Activity (B16-F10 [24]): 0.5 µM
Activity [25]: Non-toxic
growth inhibition (GI) (Hs-578T): Active
Activity (C6 [26]): Active
Activity (A-431 [27]): 32%
Activity (B16-F10 [28]): 73%
Activity (C6 [29]): Active
Activity (C6 [30]): Active
Activity (MDA-MB-435 [32]): 42%
Activity (Huh-7 [33]): 16%
Activity (A-431 [34]): 18%
Activity (C6 [35]): inactive
Activity (A-431 [36]): 0.1 µM
Activity [38]: Non-toxic
Activity (Huh-7 [39]): 22%
growth inhibition (GI) (SNB-75): Active
Activity (MDA-MB-231 [40]): 0.1 µM
Activity [41]: Non-toxic
Activity (C6 [42]): Active

Compound: O=[P@@]1(c2ccccc2)O[C@H](COCc2ccccc2)[C@@H](OCc2ccccc2)[C@H](OCc2ccccc2)[C@@H]1O
growth inhibition (GI) (U-251): Active
Activity (Huh-7 [4]): 0.1 µM
Activity (C6 [5]): Active
Activity (DU-145 [8]): 1 µM
Activity (MDA-MB-231 [10]): 18%
Activity (C6 [11]): 31%
Activity (Caco-2 [12]): 15%
growth inhibition (GI) (NCI-H522): Active
Activity (MDA-MB-435 [13]): 0.1 µM
EC50 (C6 [14]): 23.8 µM
inhibition of growth at 10 µM (LOX IMVI): 45%
Activity (DU-145 [17]): 14%
growth inhibition (GI) (SK-OV-3): Active
Activity (C6 [21]): 0.1 µM
growth inhibition (GI) (MDA-MB-468): Active
Activity (Caco-2 [23]): 5 µM
Activity (B16-F10 [24]): 25 µM
Activity (A-431 [27]): 33%
growth inhibition (GI) (SF-268): Active
inhibition of growth at 10 µM (UO-31): 50%
Activity (B16-F10 [28]): inactive
Activity (MDA-MB-435 [32]): 43%
Activity (A-431 [36]): 5 µM
Activity (Huh-7 [39]): 55%
growth inhibition (GI) (HOP-62): Active
Activity (MDA-MB-231 [40]): 5 µM
Activity (C6 [42]): Active
